Source: patent publication US20160257697A1, “THIOPHENE-SUBSTITUTED TETRACYCLIC COMPOUNDS AND METHODS OFUSE THEREOF FOR THE TREATMENT OF VIRAL DISEASES” (priority 2013, published 2016)
Like-named read-outs stand apart in the source and are kept apart here.

Key:
Assay in all cases: microbe, parasite or virus in culture
Format in all cases: cell-based, Hepatitis C virus (HCV)
HCV replicon 1AQ30D = details: Replicon Assay B
HCV replicon 1B = details: Replicon Assay B
HCV replicon 1AY93H = details: Replicon Assay A
Method in brief: (§1)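 HCV RNA levels were calculated from Ct values (minus intercept, divided by slope) of a Neo primer/probe standard curve, with cyclophilin quantified the same way. Cells were seeded at 2000/well and incubated with compound for 3 days in 5% serum and 0.5% DMSO.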

HCV replicon 2B = details: Replicon Assay A
Method in brief: as §1

HCV replicon 1A = details: Replicon Assay A
Method in brief: as §1

[1] = Hepatitis C virus, read-out: 1A Q30D IC50 (nM), replicon 1AQ30D
[2] = Hepatitis C virus, read-out: 1A Y93H IC50 (nM), replicon 1AY93H
[3] = Hepatitis C virus, read-out: 2B IC50 (nM), replicon 2B
[4] = Hepatitis C virus, read-out: 1A Q30D IC50, HCV replicon 1A Q30D
[5] = Hepatitis C virus, HCV replicon 1B
[6] = read-out: 1A Y93H IC50, HCV replicon 1A Y93H
[7] = read-out: 2B IC50, HCV replicon 2B
[8] = Hepatitis C virus, HCV replicon 1A
[9] = read-out: 1A Q30D IC50, HCV replicon 1A Q30D
[10] = Hepatitis C virus, read-out: 1A Y93H IC50, HCV replicon 1A Y93H
[11] = Hepatitis C virus, read-out: 2B IC50, HCV replicon 2B

Compound | IC50 (HCV replicon 1AQ30D; [1]) | IC50 (HCV replicon 1B; Hepatitis C virus, replicon 1B) | IC50 (HCV replicon 1AY93H; [2]) | IC50 (HCV replicon 2B; [3]) | IC50 (HCV replicon 1A; Hepatitis C virus, replicon 1A) | IC50 (HCV replicon 1AQ30D; [4]) | IC50 (HCV replicon 1B; [5]) | IC50 (HCV replicon 1AY93H; [6]) | IC50 (HCV replicon 2B; [7]) | IC50 (HCV replicon 1A; [8]) | IC50 (HCV replicon 1AQ30D; [9]) | IC50 (HCV replicon 1B; HCV replicon 1B) | IC50 (HCV replicon 1A; HCV replicon 1A) | further results
COC(=O)N[C@H](C(=O)N1CCC[C@H]1c1nc(-c2cc(F)c3c(c2)OC(c2ccc(C4CC4)s2)n2c-3cc3cc(-c4cnc([C@@H]5CCCN5C(=O)[C@@H](NC(=O)OC)C5C[C@@H](C)O[C@@H](C)C5)[nH]4)ccc32)c[nH]1)C(C)C (some centres unmarked) [Compound 190] | 0.013 nM | 1.4 pM | 0.002 nM | 0.003 nM | 1.1 pM |  |  |  |  |  |  |  |  | 
COC(=O)N[C@H](C(=O)N1CCC[C@H]1c1ncc(-c2cc(F)c3c(c2)OC(c2cc4c(s2)CCC4)n2c-3cc3cc(-c4cnc([C@@H]5CCCN5C(=O)[C@@H](NC(=O)OC)C5CCOCC5)[nH]4)ccc32)[nH]1)C(C)C (single isomer, unassigned) [Compound 620] |  |  |  |  |  | 0.114 nM | 1.9 pM | 0.0059 nM | 0.0102 nM | 2.3 pM |  |  |  | 
COC(=O)N[C@H](C(=O)N1C2CC2C[C@H]1c1ncc(-c2cc(F)c3c(c2)OC(c2ccc(C4CC4)s2)n2c-3cc3cc(-c4cnc([C@@H]5CCCN5C(=O)[C@@H](NC(=O)OC)C5C[C@@H](C)O[C@@H](C)C5)[nH]4)ccc32)[nH]1)C(C)C (single isomer, unassigned) [Compound 557] |  |  |  |  |  |  |  | 0.00464 nM | 0.0151 nM |  | 0.041 nM | 2.49 pM | 3.1 pM | 
COC(=O)NC(C(=O)N1CCC[C@H]1c1ncc(-c2ccc3c(c2)cc2n3C(c3cc4ccccc4s3)Oc3cc(-c4cnc([C@@H]5CCCN5C(=O)[C@@H](NC(=O)OC)C(C)C)[nH]4)cc(F)c3-2)[nH]1)C1C[C@@H](C)O[C@@H](C)C1 (single isomer, unassigned) [Compound 641] |  |  |  |  |  |  |  | 0.0079 nM | 0.0244 nM |  | 0.306 nM | 1.1 pM | 3.3 pM | 
CCc1ccc(C2Oc3cc(-c4cnc([C@@H]5CCCN5C(=O)[C@@H](NC(=O)OC)C(C)C)[nH]4)cc(F)c3-c3cc4cc(-c5cnc([C@@H]6CCCN6C(=O)[C@H](NC(=O)OC)C6COCC(C)(C)C6)[nH]5)ccc4n32)s1 (some centres unmarked) [Compound 150] | 0.094 nM | 1.9 pM | 0.004 nM | 0.007 nM | 2.4 pM |  |  |  |  |  |  |  |  | 
CCc1ccc(C2Oc3cc(-c4cnc([C@@H]5CCCN5C(=O)[C@@H](NC(=O)OC)C(C)C)[nH]4)cc(C)c3-c3cc4cc(-c5cnc([C@@H]6CCCN6C(=O)[C@@H](NC(=O)OC)C6CCOC(C)(C)C6)[nH]5)ccc4n32)s1 (single isomer, unassigned) [Compound 547] |  |  |  |  |  | 0.96 nM | 7 pM |  |  | 7 pM |  |  |  | IC50 (HCV replicon 1AY93H; [10]): 0.13 nM; IC50 (HCV replicon 2B; [11]): 0.012 nM
COC(=O)N[C@H](C(=O)N1CCC[C@H]1c1ncc(-c2cc(F)c3c(c2)OC(c2ccc(C4CC4)s2)n2c-3cc3cc(-c4cnc([C@@H]5C[C@@H](F)CN5C(=O)[C@@H](NC(=O)OC)C(C)C)[nH]4)ccc32)[nH]1)C(C)C (some centres unmarked) [Compound 757] |  |  |  |  |  | 2.85 nM | 3 pM |  |  | 2.7 pM |  |  |  | IC50 (HCV replicon 1AY93H; [10]): 0.013 nM; IC50 (HCV replicon 2B; [11]): 2.4 nM
COC(=O)N[C@H](C(=O)N1CCC[C@H]1c1ncc(-c2cc(C)c3c(c2)OC(c2ccc(C4CC4)s2)n2c-3cc3cc(-c4cnc([C@@H]5CCCN5C(=O)[C@@H](NC(=O)OC)C(C)C)[nH]4)ccc32)[nH]1)C(C)C (single isomer, unassigned) [Compound 753] |  |  |  |  |  |  |  | 0.06 nM | 0.023 nM |  | 0.639 nM | 2 pM | 5.7 pM | 
COC(=O)N[C@H](C(=O)N1CCC[C@H]1c1ncc(-c2cc(F)c3c(c2)OC(c2ccc(C#CC4CC4)s2)n2c-3cc3cc(-c4cnc([C@@H]5CCCN5C(=O)[C@@H](NC(=O)OC)C(C)C)[nH]4)ccc32)[nH]1)C(C)C (single isomer, unassigned) [Compound 86] | 0.11 nM | 1.6 pM |  |  |  |  |  |  |  |  |  |  |  | IC50 (HCV replicon 1AY93H; read-out: 1A Y93H IC50, replicon 1AY93H): 0.003 nM; IC50 (HCV replicon 2B; read-out: 2B IC50, replicon 2B): 0.033 nM; IC50 (HCV replicon 1A; replicon 1A): 1.6 pM
COC(=O)NC(C(=O)N1[C@@H]2C[C@@H]2C[C@H]1c1ncc(-c2ccc3c(c2)cc2n3C(c3ccc(C4CC4)s3)Oc3cc(-c4cnc([C@@H]5CCCN5C(=O)[C@@H](NC(=O)OC)C(C)C)[nH]4)cc(F)c3-2)[nH]1)C1CCOC(C)(C)C1 (some centres unmarked) [Compound 275] | 0.023 nM | 3.2 pM | 0.003 nM | 0.006 nM | 1.9 pM |  |  |  |  |  |  |  |  | 
